Here are results for one molecule from ChEMBL document CHEMBL5029152, “Discovery of Highly Potent and Selective IRAK1 Degraders to Probe Scaffolding Functions of IRAK1 in ABC DLBCL” (J Med Chem, 2021).

The source made the active and inactive calls. No cut-off for these calls is given here.

The target in test [1] is von Hippel-Lindau disease tumor suppressor/Interleukin-1 receptor-associated kinase 1 (Homo sapiens, UniProt P51617+P40337). As to the kind of experiment: Protac activity at IRAK1/VHL E3 ligase in human OCILY10 assessed as induction of IRAK1 degradation measured after 24 hrs by Western blot analysis.
Test [2] deals with T1, Mitogen-activated protein kinase kinase kinase 19 (Homo sapiens) (UniProt Q56UN5).
T1 sequence (whole entry): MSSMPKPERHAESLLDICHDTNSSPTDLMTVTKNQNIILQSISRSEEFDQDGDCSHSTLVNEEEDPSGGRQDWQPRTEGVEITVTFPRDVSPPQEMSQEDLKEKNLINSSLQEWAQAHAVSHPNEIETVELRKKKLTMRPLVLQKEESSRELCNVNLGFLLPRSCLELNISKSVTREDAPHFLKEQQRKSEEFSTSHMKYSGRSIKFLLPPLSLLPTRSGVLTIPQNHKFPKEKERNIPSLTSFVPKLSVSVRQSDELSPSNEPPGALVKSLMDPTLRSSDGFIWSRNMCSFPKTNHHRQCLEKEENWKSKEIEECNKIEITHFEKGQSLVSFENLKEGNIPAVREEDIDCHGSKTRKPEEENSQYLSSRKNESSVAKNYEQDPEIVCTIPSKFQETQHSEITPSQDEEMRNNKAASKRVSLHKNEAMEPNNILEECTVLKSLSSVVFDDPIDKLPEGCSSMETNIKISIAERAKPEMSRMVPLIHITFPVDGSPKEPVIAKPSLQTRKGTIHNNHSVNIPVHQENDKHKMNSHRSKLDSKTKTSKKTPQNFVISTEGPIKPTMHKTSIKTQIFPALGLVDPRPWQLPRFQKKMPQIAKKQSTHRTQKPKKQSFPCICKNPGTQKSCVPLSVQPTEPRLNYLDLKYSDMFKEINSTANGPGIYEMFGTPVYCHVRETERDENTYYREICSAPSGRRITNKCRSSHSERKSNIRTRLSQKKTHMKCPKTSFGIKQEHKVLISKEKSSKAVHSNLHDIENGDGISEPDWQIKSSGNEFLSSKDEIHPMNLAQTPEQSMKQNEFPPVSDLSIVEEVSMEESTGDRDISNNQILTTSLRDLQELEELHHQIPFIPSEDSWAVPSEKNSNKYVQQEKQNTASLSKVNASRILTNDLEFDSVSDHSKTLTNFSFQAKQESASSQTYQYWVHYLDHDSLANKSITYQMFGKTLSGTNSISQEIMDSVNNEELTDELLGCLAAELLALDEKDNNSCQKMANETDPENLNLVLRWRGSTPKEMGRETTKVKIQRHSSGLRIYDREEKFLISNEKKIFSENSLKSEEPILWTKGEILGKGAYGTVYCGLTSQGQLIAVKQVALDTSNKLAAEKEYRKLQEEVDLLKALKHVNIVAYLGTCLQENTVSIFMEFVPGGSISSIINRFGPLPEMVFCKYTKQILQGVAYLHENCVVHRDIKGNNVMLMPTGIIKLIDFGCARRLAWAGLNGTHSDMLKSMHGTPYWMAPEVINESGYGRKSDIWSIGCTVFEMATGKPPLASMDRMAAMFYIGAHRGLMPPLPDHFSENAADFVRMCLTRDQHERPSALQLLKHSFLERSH
Description: Inhibition of wild-type human partial length YSK4 (T1019 to H1328 residues) expressed in mammalian expression system at 1 uM by Kinomescan method.

Test [3] has as its target Interleukin-1 receptor-associated kinase 1 (Homo sapiens, UniProt P51617). Description: Inhibition of truncated human N-terminal GST-fusion tagged IRAK1 (194 to 712 residues) expressed in baculovirus expression system using FAM-labelled peptide as substrate preincubated for 10 mins followed by substrate addition and further incubated for 1 hr in presence of ATP at Km concentration by caliper mobility shift assay.

Test [4] deals with T2, Cyclin-G-associated kinase (Homo sapiens) (UniProt O14976).
T2 sequence (whole entry): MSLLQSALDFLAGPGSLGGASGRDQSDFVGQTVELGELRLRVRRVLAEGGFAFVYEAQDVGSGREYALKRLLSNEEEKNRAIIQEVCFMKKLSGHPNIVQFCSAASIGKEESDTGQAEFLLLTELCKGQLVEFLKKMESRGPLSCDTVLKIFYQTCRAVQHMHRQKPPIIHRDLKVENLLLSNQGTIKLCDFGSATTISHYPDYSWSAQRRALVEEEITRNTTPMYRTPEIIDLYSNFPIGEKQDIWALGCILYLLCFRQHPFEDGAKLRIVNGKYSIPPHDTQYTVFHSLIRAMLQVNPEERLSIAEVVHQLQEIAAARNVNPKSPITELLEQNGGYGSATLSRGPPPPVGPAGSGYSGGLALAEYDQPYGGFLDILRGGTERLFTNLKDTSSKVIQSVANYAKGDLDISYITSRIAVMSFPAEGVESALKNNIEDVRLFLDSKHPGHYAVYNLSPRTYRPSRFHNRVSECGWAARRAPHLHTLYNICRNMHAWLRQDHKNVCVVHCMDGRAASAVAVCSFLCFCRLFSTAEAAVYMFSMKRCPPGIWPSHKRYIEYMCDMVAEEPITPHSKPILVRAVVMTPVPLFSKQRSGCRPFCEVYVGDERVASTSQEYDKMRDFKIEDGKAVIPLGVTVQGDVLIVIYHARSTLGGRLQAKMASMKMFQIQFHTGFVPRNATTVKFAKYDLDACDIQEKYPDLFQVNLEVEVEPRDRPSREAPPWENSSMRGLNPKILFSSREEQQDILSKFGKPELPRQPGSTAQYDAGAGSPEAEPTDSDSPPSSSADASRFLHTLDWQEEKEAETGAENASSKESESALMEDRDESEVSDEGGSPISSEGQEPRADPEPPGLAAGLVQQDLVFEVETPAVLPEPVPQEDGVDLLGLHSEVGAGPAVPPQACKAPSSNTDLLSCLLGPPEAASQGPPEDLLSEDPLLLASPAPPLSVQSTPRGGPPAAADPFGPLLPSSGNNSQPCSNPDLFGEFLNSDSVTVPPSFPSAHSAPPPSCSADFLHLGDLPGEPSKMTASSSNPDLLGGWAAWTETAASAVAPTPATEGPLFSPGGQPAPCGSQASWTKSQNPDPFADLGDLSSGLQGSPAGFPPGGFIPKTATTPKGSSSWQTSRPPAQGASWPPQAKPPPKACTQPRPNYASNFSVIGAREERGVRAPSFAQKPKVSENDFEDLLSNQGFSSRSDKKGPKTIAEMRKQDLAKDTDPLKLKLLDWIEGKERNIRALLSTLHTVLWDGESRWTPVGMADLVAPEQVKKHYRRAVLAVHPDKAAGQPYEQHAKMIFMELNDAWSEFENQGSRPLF
Description: Induction of GAK degradation in human Toledo cells assessed as decrease in protein abundance at 1 uM measured after 6 hrs by quantitative mass spectrometry. In kind it is cell-based.

Test [5] deals with T2, Cyclin-G-associated kinase (Homo sapiens). As to the kind of experiment: Induction of GAK degradation in human Toledo cells at 1 uM measured after 6 hrs by quantitative mass spectrometry relative to control. It counts as cell-based.

Chain of von Hippel-Lindau disease tumor suppressor/Interleukin-1 receptor-associated kinase 1 (P51617 whole entry): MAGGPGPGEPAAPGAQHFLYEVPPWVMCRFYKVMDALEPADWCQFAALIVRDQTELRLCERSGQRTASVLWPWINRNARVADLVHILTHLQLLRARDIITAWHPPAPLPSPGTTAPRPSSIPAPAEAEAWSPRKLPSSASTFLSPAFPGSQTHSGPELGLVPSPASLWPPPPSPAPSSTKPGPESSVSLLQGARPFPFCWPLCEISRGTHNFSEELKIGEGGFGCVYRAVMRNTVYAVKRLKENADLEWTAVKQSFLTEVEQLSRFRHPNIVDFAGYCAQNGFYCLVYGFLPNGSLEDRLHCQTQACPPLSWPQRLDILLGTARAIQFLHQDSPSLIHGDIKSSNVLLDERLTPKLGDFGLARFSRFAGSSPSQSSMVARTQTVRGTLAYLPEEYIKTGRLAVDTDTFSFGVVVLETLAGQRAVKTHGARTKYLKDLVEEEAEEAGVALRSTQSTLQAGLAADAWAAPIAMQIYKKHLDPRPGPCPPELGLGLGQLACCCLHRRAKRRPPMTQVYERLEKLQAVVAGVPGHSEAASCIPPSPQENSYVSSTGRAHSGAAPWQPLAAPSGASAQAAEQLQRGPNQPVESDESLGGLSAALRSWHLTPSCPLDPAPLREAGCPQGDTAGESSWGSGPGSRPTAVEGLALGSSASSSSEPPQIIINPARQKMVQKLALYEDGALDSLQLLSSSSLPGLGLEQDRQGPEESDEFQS
Chain of von Hippel-Lindau disease tumor suppressor/Interleukin-1 receptor-associated kinase 1 (P40337 whole entry): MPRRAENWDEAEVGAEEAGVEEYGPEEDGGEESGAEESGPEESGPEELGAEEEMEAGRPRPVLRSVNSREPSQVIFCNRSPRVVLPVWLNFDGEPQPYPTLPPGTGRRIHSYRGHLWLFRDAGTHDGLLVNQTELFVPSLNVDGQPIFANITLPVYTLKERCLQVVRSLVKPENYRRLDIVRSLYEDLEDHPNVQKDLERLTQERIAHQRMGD
Chain of Interleukin-1 receptor-associated kinase 1 (P51617 whole entry, the tested form may be a part): as the sequence (P51617 whole entry) above

In the case of `COc1cc(N2CCC(OCC(=O)N[C@H](C(=O)N3C[C@H](O)C[C@H]3C(=O)N[C@@H](C)c3ccc(-c4scnc4C)cc3)C(C)(C)C)CC2)ccc1NC(=O)c1cccc(-c2ccn[nH]2)n1`, in test [1], the 50% degradation concentration (DC50) worked out at 20 nM. Further, the inhibition result in test [2] is “Active”. The 50% inhibitory concentration (IC50) in test [3] is 72 nM. In addition, the result in test [4] was Active. Moreover, the Activity in test [5] is 50%.
